From patent US8883836B2, “Solid forms of bendamustine hydrochloride” (Cephalon, Inc., priority 2008, dated 2014)

Test: Thermodynamic Aqueous Solubility by HPLC
Assay type: physicochemical
Description: Thermodynamic Aqueous Solubility by HPLC
Aqueous solubility was determined by suspending sufficient compound in 0.25 ml of water to give a maximum final concentration of ≧10 mg·ml^−1 of the parent free-form of the compound. The suspension was equilibrated at 25° C. for 24 hours (unless otherwise stated) after which the pH was measured. The suspension was then filtered through a glass fibre C filter into a 96 well plate. The filtrate was then diluted by a factor of 100 times. Quantitation was by HPLC with reference to a standard solution of approximately 0.1 mg·ml-1 in DMSO. Different volumes of the standard, diluted and undiluted sample solutions were injected. The solubility was calculated using the peak areas determined by integration of the peak found at the same retention time as the principal peak in the standard injection.

For `Cl.Cn1c(CCCC(=O)O)nc2cc(N(CCCl)CCCl)ccc21` [Form 1, bendamustine hydrochloride], the “solution pH” value (saturated aqueous solution of the solubility experiment) was 2.16, the “degradation of sample in aqueous solubility experiment” value (water) was “significant degradation occurred” and the aqueous solubility (water, 25° C., 24 hours, significant degradation occurred) was 4500 µg/mL.
